Source: patent US20250179057A1, “MEK IMMUNE ONCOLOGY INHIBITORS AND THERAPEUTIC USES THEREOF” (Immuneering Corporation, priority 2022, published 2025)
Counter-ions that a name gives are not always drawn.

Columns and labels:
[1] = Plasma stability, human plasma (K2EDTA); format: in vitro ADME; details: 2 μM; for % Remaining at T120 / half-life at 2 μM / T1/2: human plasma, anti-coagulant K2-EDTA; for % Remaining at T120: 120 min; for half-life at 2 μM / T1/2: 10 to 120 min; for half-life at 2 μM: read-out: T1/2
Procedure: (§1) Individual stock solutions of propantheline and lovastatin were prepared at 10 mM in DMSO and were further diluted to 2 mM with DMSO.
(§2) Frozen matrices (Balb/c mouse, Wistar Han rat, Beagle dog, and human plasma containing K2EDTA as anti-coagulant) were thawed and centrifuged at 3100 rpm for 10 minutes at 4° C. to remove particulates. The lipid layer was then removed, and the supernatant was transferred to a new tube without disturbing the pellet. After the matrices were incubated at 37° C. for at least 10 minutes, the pH of each matrix was adjusted to pH 7.4, using 10% phosphoric acid or 1N sodium hydroxide as necessary. Test and control article stock solutions were spiked (2 μL) into matrix (1.998 mL) and mixed to final assay concentration of […]. Duplicate 30-μL aliquots of spiked plasma were transferred to matrix tubes in 96-well plate immediately after spiking for timepoints of 0, 30, 60, 120, 240, and 360 minutes. These tubes were then incubated at 37° C. with shaking and at each timepoint, the corresponding tubes containing samples were quenched with 180 μL of cold acetonitrile containing the internal standards. The quenched samples were vortex-mixed briefly and stored refrigerated. After the final time point (360 minutes), the plates with all quenched samples were vortex-mixed for 10 minutes and then centrifuged at 3100 rpm for 10 minutes at 4° C. to sediment the precipitated protein. The supernatant (50 μL) was transferred to a clean 96-well plate and diluted with 100 μL of water. The plates were stored refrigerated until analysis.
(§3) Data Analysis: Peak area ratios for IS-normalized test article and control article counts were used to calculate the percent remaining relative to the time zero (T0) value. As appropriate, results were plotted and further analyzed to calculate half-life (T1/2) values.
(§4) Mean peak area ratios were used to calculate the % remaining relative to the T0 value:
(§5) In this study, human, cynomolgus monkey, beagle dog, wistar hannover rat, and balb/c plasma stability was determined. Table 28 describes the results of the human plasma stability at 2 μM concentration and anti-coagulant K2-EDTA from 10 to 120 min. Table 29 describes the results of the cynomolgus monkey plasma stability at 2 μM concentration and anti-coagulant K2-EDTA. Table 30 describes the results of the beagle dog plasma stability at 2 μM concentration and anti-coagulant K2-EDTA. Table 31 describes the results of the wistar hannover rat plasma stability at 2 μM concentration and anti-coagulant K2-EDTA. Table 32 describes the results of the balb/c plasma stability at 2 μM concentration and anti-coagulant K2-EDTA.

[2] = Plasma stability, cynomolgus monkey plasma (K2-EDTA); format: in vitro ADME; details: for % Remaining at T120 / T1/2: 2 μM, anti-coagulant K2-EDTA; for % Remaining at T120: 120 min; for half-life at 2 μM: plasma (K2EDTA), pH 7.4, anti-coagulant K2-EDTA
Procedure: as §1, §2, §3, §4, §5

[3] = target: CYP2C9 (Homo sapiens, UniProt P11712); experiment: CYP450 panel inhibition in human liver microsomes, 2C9 (diclofenac); details: for inhibition at 30 min, 10 µM: microsomes; for CYP-2C9 (Diclofenac) mean percentage CYP inhibition: human liver microsomes, substrate diclofenac
Text: The quenched samples were stored refrigerated.

[4] = system: phospho-ERK in A549 (KRAS G12S) cells; experiment: Cell-based pERK (pERK:tERK) in A549 cells; set-up: A549-pERK 10 uM, 2 h: unit not given here; details: for pERK:tERK (10 nM 2 h A549): Phospho-ERK Screen in A549 (KRAS G12S), head 10 nM 2 h, title 10 μM for 2 hours; for A549-pERK (10 nM, 2 h): phospho- to total protein ratio normalized to DMSO control (Table 9); for IC50: A549, 12-point dose; for activity at 0.01 µM: A549, 2 h, read-out: A549-pERK (10 nM, 2 h)
Summary of the method: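 Readout was pERK versus tERK by Western blot with IRDye-labelled secondary antibodies, imaged and quantified on a LI-COR Odyssey. Lysates were loaded at 1 mg/mL protein after Bradford estimation.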

CYP2C9, sequence (P11712 whole entry): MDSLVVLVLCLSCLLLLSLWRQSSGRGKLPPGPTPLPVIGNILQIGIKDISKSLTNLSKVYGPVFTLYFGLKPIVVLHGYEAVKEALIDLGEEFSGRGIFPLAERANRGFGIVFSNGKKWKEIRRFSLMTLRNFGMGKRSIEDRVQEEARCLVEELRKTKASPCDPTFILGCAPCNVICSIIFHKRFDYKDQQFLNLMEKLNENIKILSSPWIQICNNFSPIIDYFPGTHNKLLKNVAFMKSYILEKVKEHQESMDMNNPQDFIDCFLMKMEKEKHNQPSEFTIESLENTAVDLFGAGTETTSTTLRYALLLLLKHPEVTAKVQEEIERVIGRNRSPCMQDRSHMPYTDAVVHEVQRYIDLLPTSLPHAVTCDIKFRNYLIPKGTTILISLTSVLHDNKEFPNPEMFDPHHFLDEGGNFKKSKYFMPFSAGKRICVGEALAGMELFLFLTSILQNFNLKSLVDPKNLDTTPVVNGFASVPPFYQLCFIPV

| Structure (SMILES) | % Remaining at T120 [1] [%] | half-life at 2 μM ([1]; pH 7.4) [h] | % Remaining at T120 [2] [%] | half-life at 2 μM [2] [h] | inhibition at 30 min, 10 µM ([3]; human, pH 7.4) [%] | pERK:tERK (10 nM 2 h A549) [4] | T1/2 [1] [h] | T1/2 [2] [h] | CYP-2C9 (Diclofenac) mean percentage CYP inhibition ([3]; 10 μM) [%] | A549-pERK (10 nM, 2 h) ([4]; 2 h) | also measured |
| --- | --- | --- | --- | --- | --- | --- | --- | --- | --- | --- | --- |
| CNS(=O)(=O)Nc1cccc(Cc2c(CN3CCNCC3)c3cc(Cl)c(OC(=O)N(C)C)cc3oc2=O)c1Cl [Compound 256, 6-chloro-3-(2-chloro-3-((N-methylsulfamoyl)amino)benzyl)-2-oxo-4-(piperazin-1-ylmethyl)-2H-chromen-7-yl dimethylcarbamate hydrochloride] | 84.8 | 14 | 95.0 | 28.5 | 36.5 | 14 | – | – | – | – | – |
| CNS(=O)(=O)Nc1nccc(Cc2c(CN(C)C)c3ccc(OC(=O)N(C)C)cc3oc2=O)c1F [Compound 124] | 85.0 | – | 95.9 | – | – | – | 10.5 | 21.32 | 65.5 | 94.6 | – |
| CNS(=O)(=O)Nc1cccc(Cc2c(CN(C)C)c3ccc(OC(=O)N(C)C)cc3oc2=O)c1F [Compound 9] | 99.8 | – | 110.4 | – | – | 65 (n = 27) | >2 | >2 | 13.4 | 63.0 | A549 pERK:tERK ratio [10 nM; 2 hr] [4]: 0.62; A549-pERK 10 uM, 2 h ([4]; 10 uM, 2 h, phospho- to total protein ratio normalized to DMSO control): 1.205 (mean, n = 2); IC50 [4]: 19.8 nM |
| CNS(=O)(=O)Nc1cccc(Cc2c(CN(C)C)c3ccc(OC(=O)N(C)C)cc3oc2=O)c1Cl [Compound 274, 3-(2-chloro-3-((N-methylsulfamoyl)amino)benzyl)-4-((dimethylamino)methyl)-2-oxo-2H-chromen-7-yl dimethylcarbamate] | 121.2 | > 2 | 104.5 | > 2 | 17.1 | – | – | – | – | – | – |
| CNS(=O)(=O)Nc1nccc(Cc2c(C)c3ccc(Oc4ncccn4)cc3oc2=O)c1F [Reference-2, reference compound] | – | – | – | – | – | – | – | – | – | – | Human (% Reamining @2 hour) ([1]; plasma, 2 hour): 91.1%; IC50 ([4]; Homo sapiens): 7.2 nM |
| Cn1cnc2c(F)c(Nc3ccc(Br)cc3Cl)c(C(=O)NOCCO)cc21 [Reference-1, Selumetinib] | – | – | – | – | – | – | – | – | – | – | Human (% Reamining @2 hour) ([1]; human, 2 h, pH 7.4): 98.1%; CYP2C9 inhibition ([3]; human, 30 min, 10 μM, pH 7.4): 14.1%; A549 pERK:tERK ratio [10 nM; 2 hr] [4]: 0.56; IC50 ([4]; Homo sapiens): 7.2 nM |
| CNS(=O)(=O)Nc1cccc(Cc2c(CN3CCNCC3)c3ccc(OC(=O)N(C)C)cc3oc2=O)c1Cl [Compound 246, 3-(2-chloro-3-((N-methylsulfamoyl)amino)benzyl)-2-oxo-4-(piperazin-1-ylmethyl)-2H-chromen-7-yl dimethylcarbamate hydrochloride] | 105.7 | > 2 | 104.5 | > 2 | 19.4 | 19 | – | – | – | – | activity at 0.01 µM ([4]; Homo sapiens): 19% |
| CNS(=O)(=O)Nc1cccc(Cc2c(CN(C)C)c3cc(F)c(OC(=O)N(C)C)cc3oc2=O)c1F [Compound 25] | 112.1 | – | 107.3 | – | – | 66 (n = 2) | >2 | >2 | 28.0 | 66.2 | – |
| CCN(C)Cc1c(Cc2cccc(NS(=O)(=O)NC)c2F)c(=O)oc2cc(OC(=O)N(C)C)c(F)cc12 [Compound 238] | 95.7 | 68.6 | 101.1 | > 2 | – | – | – | – | – | – | activity at 0.01 µM ([4]; Homo sapiens): 68.4% |
| CNS(=O)(=O)Nc1cccc(Cc2c(CN3CCNCC3)c3cc(F)c(OC(=O)N(C)C)cc3oc2=O)c1F [Compound 134] | 107.8 | – | 93.0 | – | – | – | >2 | 15.8 | 20.5 | 33.1 | – |
| CCS(=O)(=O)Nc1cccc(Cc2c(CN(C)C)c3ccc(OC(=O)N(C)C)cc3oc2=O)c1F [Compound 120] | 123.8 | – | 107.3 | – | – | – | >2 | >2 | 11.1 | 77.2 | – |
| CCS(=O)(=O)Nc1cccc(Cc2c(CN3CCNCC3)c3cc(Cl)c(OC(=O)N(C)C)cc3oc2=O)c1Cl [Compound 257, 6-chloro-3-(2-chloro-3-(ethylsulfonamido)benzyl)-2-oxo-4-(piperazin-1-ylmethyl)-2H-chromen-7-yl dimethylcarbamate hydrochloride] | 96.3 | 173 | 98.0 | 20.1 | 53.7 | 17 | – | – | – | – | – |
| CCN(C)Cc1c(Cc2cccc(NS(=O)(=O)NC)c2Cl)c(=O)oc2cc(OC(=O)N(C)C)ccc12 [Compound 245, 3-(2-chloro-3-((N-methylsulfamoyl)amino)benzyl)-4-((ethyl(methyl)amino)methyl)-2-oxo-2H-chromen-7-yl dimethylcarbamate] | 106.8 | > 2 | 96.5 | 23 | 25.8 | 69 | – | – | – | – | activity at 0.01 µM ([4]; Homo sapiens): 68.8% |
| CCCS(=O)(=O)Nc1cccc(Cc2c(CN3CCNCC3)c3cc(Cl)c(OC(=O)N(C)C)cc3oc2=O)c1F [Compound 167] | 84.6 | – | 117.3 | – | – | 27 (n = 2) | 15.8 | >2 | 71.8 | – | – |
